According to patent US11207301B2, “Sphingosine 1 phosphate receptor agonists for neuroprotection” (RECEPTOS LLC, priority 2017, dated 2021):

Experiments:
[1] = test system: ERK phosphorylation in primary human astrocytes; assay: ERK phosphorylation in primary human cortical astrocytes (AlphaLISA SureFire Ultra); assay type: cell-based; conditions: Astrocyte, 10 min, 10-minute exposure, n=3-5
Method: For the experiments using mouse and human primary astrocytes, ten-point concentration-response curves (90 nM-4.57 pM or 30 nM-1.52 pM) were generated for AKT and/or ERK phosphorylation in primary human and mouse cortical astrocytic cultures in response to a 10-minute treatment with ozanimod, Compound 3, Compound 1, or FTY720-P. AKT and ERK phosphorylation were quantified using AlphaLISA SureFire Ultra Assay kits and the EnVision Plate Reader. AKT and ERK phosphorylation within treated astrocytes were expressed as the mean change in signal intensity compared to the dimethyl sulfoxide (DMSO) vehicle and the half maximal effective concentration (EC50) was determined using non-linear regression.
Primary human astrocytes were purchased from ScienCell Research Laboratories, Inc. and cultured according to the supplier's protocol. The astrocytes were obtained from the human cerebral cortex, cryopreserved at passage one, and delivered frozen. The frozen vials of cells were gently thawed in a 37° C. water bath. Once the contents of the vial were completely thawed, the cell solution was dispensed into a poly-L-lysine (PLL) coated T75 tissue culture flask with 16 mL of human Astrocyte Media, (ScienCell Research Laboratories, Inc.) and incubated at 37° C. 5% CO2. Once the human astrocytes had reached confluency in the T75 flask, they were detached using trypsin/EDTA 0.25%, pelleted at 300×g, split into two PLL coated T225 tissue culture flasks in 40 mL of astrocyte media, and incubated at 37° C. 5% CO2. Once the astrocytes reached confluency in the T225 flasks, they were detached using trypsin/EDTA 0.25% solution, pelleted at 300×g, plated into poly-D-lysine (PDL) coated 96-well plates at a density of 10,000 cells per well in 200 μL human Astrocyte Media, and incubated at 37° C. 5% CO2. Half of the media was replenished every 3-4 days. After 5-7 days of incubation, the P2 human astrocyte plates were utilized for the pERK and pAKT assays.
Cell lysis and detection of pERK were performed according to the PerkinElmer AlphaLISA SureFire Ultra p-ERK1/2 (Thr202/TYR 204) assay protocol. Astrocytes were lysed in the 96-well plate following a 10 minute incubation with compounds with shaking at RT. The astrocytic lysates (10 μL/well) were transferred into a 384-well OptiPlate. As specified by the assay protocol, an acceptor bead mix and a donor bead mix (5 μL/well for each) were added to the plate under subdued light. Plates were sealed with adhesive plate seals and incubated in the dark for 2 hours at RT. The plates were read on the EnVision Plate Reader to assess the pERK levels.
The AKT and ERK phosphorylation data, collected by a Perkin Elmer EnVision Microplate Reader, was analyzed by non-linear regression (GraphPad Prism, version 7.03) to determine the EC50 values.

[2] = test system: ERK phosphorylation in primary rat astrocytes; assay: ERK phosphorylation in primary rat astrocytes (MSD pERK assay); assay type: cell-based; conditions: Astrocyte, 10 min, 10-minute exposure, mean of n=3
Method: For the experiments using rat primary astrocytes, eight-point concentration-response curves were generated for AKT and ERK phosphorylation in primary rat astrocytes cultures in response to a 10-minute treatment with ozanimod (100 nM-46 pM), Compound 3 (10 nM-5 pM), Compound 1 (10 nM-5 pM), or FTY720-P (10 nM-5 pM). Phosphorylation of AKT and ERK was quantified using Meso Scale Discovery assay kits (MSD Mutli-Spot Phopho-AKT (Ser473) Assay Kit and MSD Multi-Spot MAP Kinase Phosphoprotein Assay Whole Cell Lysate Kit) and imaging platform. AKT and ERK phosphorylation within treated astrocytes were assessed as the mean change in signal intensity compared to DMSO vehicle and the half maximal effective concentration (EC50) was determined using non-linear regression.
Embryonic day18 (E18) rat cortices were purchased from BrainBits LLC. (Springfield, Ill.) and were cultured according to the supplier's protocol. Briefly, cortices were incubated at 37° C. for 10 minutes in activated papain solution before trituration in hibernation medium containing B27 supplement using a modified siliconized glass Pasteur pipette. The cell suspension was centrifuged at 1100×g for 1 minute at room temperature (RT). The cell pellet was then resuspended in NbAstro medium (BrainBits LLC.) and the live cell density was assessed using a cell counter. Primary cells were plated at a density of 7500 cells/cm2 in T75 tissue culture flasks coated with poly-D-lysine (PDL) in a total volume of 12 mL of NbAstro media, and incubated for 10-14 days at 37° C. 5% CO2. After 10-14 days, primary astrocytes in passage 0 (P0) that had reached confluency in the T75 flasks were detached using TrypLE detachment reagent, pelleted at 300×g, and plated into poly-d-lysine coated T225 flasks in 20 mL of NbAstro media, and incubated for another 7 days at 37° C. 5% CO2. After 7 days, primary P1 astrocytes in confluent T225 flasks were detached using TrypLE detachment reagent, pelleted at 300×g, and plated intopoly-d-lysine coated 96-well plates at 10,000 cells per well in 200 μL of NbAstro media, and incubated for 7 days at 37° C. 5% CO2. After 7 days, P2 primary astrocytes were utilized for pAKT and pERK assays.
The pERK (phosphorylated ERK)/pMAPkinase assay was performed according to the manufacturer's protocol. Briefly, MSD pERK/pMAPkinase plates were blocked for 1-2 hours by adding 150 μL of blocker A prepared in 1× Tris wash buffer. […] Following antibody incubation, plates were washed three times with 150 μL of 1× Tris wash buffer and 1× read buffer (150 μL/well) was added. Finally, the plates were read in the MSD imager platform to assess the pERK levels.
AKT and ERK phosphorylation data were analyzed by non-linear regression (GraphPad Prism, version 6) to determine the EC50 values.

| Compound | EC50 [1] | EC50 [2] |
| --- | --- | --- |
| CC(C)Oc1ccc(-c2nc(-c3cccc4c3CCC4=O)no2)cc1C#N [Compound 1, 2-isopropoxy-5-(3-(1-oxo-2,3-dihydro-1H-inden-4-yl)-1,2,4-oxadiazol-5-yl)benzonitrile] | 2.12 nM | 0.29 nM |
| CC(C)Oc1ccc(-c2nc(-c3cccc4c3CC[C@@H]4NCCO)no2)cc1C#N [Ozanimod] | 1.93 nM | 0.8 nM |
